From ChEMBL document CHEMBL1201862, “PubChem BioAssay data set” (2004)
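Exposure lasted 48 hours, with cells grown in 96-well plates and compounds tested at five concentrations. Here, GI50 denotes the concentration required for 50% inhibition of growth.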 Calls of active or inactive are those of the source. Cut-off read from the data, not from the text of the source: active = GI50 up to about 1.1 µM and inactive = higher.

How the values were obtained:
Test in all cases: growth of human tumour cells (NCI), 48 h
786-0 = test system: 786-0
ACHN = test system: ACHN
CCRF-CEM = test system: CCRF-CEM
COLO 205 = test system: COLO 205
EKVX = test system: EKVX
HCC 2998 = test system: HCC 2998
HOP-92 = test system: HOP-92
MDA-MB-231 = test system: MDA-MB-231
MOLT-4 = test system: MOLT-4
NCI-H226 = test system: NCI-H226
NCI-H23 = test system: NCI-H23
OVCAR-5 = test system: OVCAR-5
OVCAR-8 = test system: OVCAR-8
RPMI-8226 = test system: RPMI-8226
RXF 393 = test system: RXF 393
SF-295 = test system: SF-295
SK-MEL-5 = test system: SK-MEL-5
SR = test system: SR
U-251 = test system: U-251
UO-31 = test system: UO-31

Measured: GI50

C/C1=C\CC/C(C)=C/C=C(/C(C)C)CC/C(C(=O)O)=C/CC1 [CROTOCEMBRANEIC ACID]
inactive: 786-0 55.7 µM | ACHN 34.5 µM | CCRF-CEM 30.5 µM | COLO 205 19.9 µM | EKVX 39 µM | HCC 2998 37.6 µM | HOP-92 92.3 µM | MDA-MB-231 56.5 µM | MOLT-4 28.3 µM | NCI-H226 33 µM | NCI-H23 36.5 µM | OVCAR-5 > 100 µM | OVCAR-8 66.2 µM | RPMI-8226 22.8 µM | RXF 393 29.4 µM | SF-295 26.7 µM | SK-MEL-5 36 µM | SR 22 µM | U-251 35.1 µM | UO-31 72.8 µM
